# Results as given in US12433860B2, “Treatment of multiple sclerosis comprising DHODH inhibitors” (Immunic AG, priority 2021, dated 2025).
# “And” between values parts separate entries of the source, which are not always exact repeats. Equal values may be shown once. Where a name gives a salt, the structure may show the parent alone.
# Tests used:
# [1] = system: secretion of interleukin (IL)-17 and IFNγ; conditions: in vitro; cited from earlier work
# [2] = system: neurofilament light chain in serum; experiment: EMPhASIS: change in serum neurofilament light chain; assay type: in vivo, human; conditions: for Median change in neurofilament light chain in serum from baseline to week 24: placebo 6.5%
# Protocol: (§1) Other secondary endpoints included: the difference in the cumulative number of combined unique active lesions up to week 24 between vidofludimus calcium 45 mg and vidofludimus calcium 30 mg; number or cumulative number of gadolinium-enhancing, T1, or T2 lesions up to 24 weeks; annualized relapse rate from baseline until week 24; proportion of relapse-free patients up to week 24; time-to-first relapse; change in EDSS score from baseline; proportion of patients with EDSS score progression; brain atrophy and other MRI endpoints; and safety and tolerability as assessed by the investigators. Annualized relapse rate was defined as the total number of confirmed relapses divided by the real exposure time in years assessed over the time during the double-blind treatment period. EDSS progression was defined as an increase compared to baseline of at least 1.0 point for patients with a baseline EDSS score of 1.0 to 4.0 or of at least 1.5 points for patients with a baseline EDSS score of 0. Vidofludimus calcium trough concentrations (weeks 6 and 24) were used to assess the correlation between pharmacokinetics and MRI-based assessments. The effects of vidofludimus calcium on serum neurofilament (baseline and week 24) were also analyzed.
# Based on pre-clinical and clinical studies and the single and multiple-dose Phase 1 studies with IMU-838, daily doses of IMU-838 of up to 50 mg once daily are considered safe. […] A post-hoc analysis from EMPhASIS study (see Example 1 and 2) in the non-relapse active subgroup of rrMS patients was conducted. […] Change in mean EDSS from baseline to Week 24 in a non-relapse active subgroup of rrMS patients (patients without relapse between baseline and Week 24).
# human DHODH = human DHODH (Homo sapiens, UniProt Q02127); conditions: cited from earlier work
# human DHODH, sequence (Q02127 whole entry): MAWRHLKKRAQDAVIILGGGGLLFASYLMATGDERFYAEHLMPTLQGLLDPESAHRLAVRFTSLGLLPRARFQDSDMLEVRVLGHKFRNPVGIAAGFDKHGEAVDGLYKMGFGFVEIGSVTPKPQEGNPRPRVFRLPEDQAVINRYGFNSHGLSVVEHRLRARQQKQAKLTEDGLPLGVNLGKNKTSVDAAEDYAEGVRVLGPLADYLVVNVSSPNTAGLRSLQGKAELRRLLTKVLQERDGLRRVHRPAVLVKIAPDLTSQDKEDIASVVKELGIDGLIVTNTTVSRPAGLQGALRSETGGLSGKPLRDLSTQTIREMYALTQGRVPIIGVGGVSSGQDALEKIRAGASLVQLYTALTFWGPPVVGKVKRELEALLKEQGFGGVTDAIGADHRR
# [3] = system: patients with RRMS and evidence of active disease; experiment: EMPhASIS Cohort 2 interim analysis: MRI lesions up to Week 12; assay type: in vivo, human
# Protocol: Given the relative equal performance of the two doses in Cohort 1 (see Example 1) and to allow for pharmacodynamic modeling of the dose-response relationship, a lower dose was investigated. The objective of the Cohort 2 sub-trial is to obtain exploratory data on the dose response of IMU-838 by evaluating a lower IMU-838 dose i.e. 10 mg/day to provide additional data for pharmacodynamic modelling. The 10 mg IMU-838 dose was selected since it is more than 50% lower than the lowest effective dose of Cohort 1 (30 mg IMU 838) and avoids undesired overlap in serum trough levels for pharmacodynamic modelling of the pooled Cohort 1 and 2 data. A small placebo arm is included to provide blinding of patients and to relate Cohort 2 treatment effects. Assessments and procedures mostly follow those described for the main treatment period in the Cohort 1 main trial. Trial objectives and endpoints: The objective of this sub-trial is to obtain more efficacy and safety data of IMU-838 in patients with RRMS and to allow pharmacodynamic modelling of the dose response. The endpoints analyzed in this interim analysis were between-treatment differences in the following MRI parameters: cumulative number of CUA MRI lesions up to Week 12; cumulative number of new Gadolinium enhancing (Gd+) lesions up to Week 12; proportion of patients without CUA MRI lesions until Week 12; and proportion of patients without new Gd+ lesions until Week 12. Overall trial design and plan: This is a double-blind, placebo-controlled, randomized, parallel-group sub-trial of P2 IMU-838 MS to assess the efficacy and safety of once-daily oral 10 mg/day IMU-838 compared to placebo in patients with RRMS and evidence of active disease. The sub-trial consists of a blinded main treatment period and an open-label, extended treatment period (FIG. 2). Patients were randomized 1:4 to placebo and 10 mg IMU-838 on Day 0.
# [4] = Pre-clinical, clinical and single and multiple-dose Phase 1 studies: safe daily dose; assay type: in vivo; conditions: once daily
# [5] = system: T-lymphocyte proliferation; conditions: in vitro; cited from earlier work
# [6] = system: patients with relapsing-remitting multiple sclerosis; experiment: EMPhASIS Cohort 1: annualized relapse rate and time-to-first relapse; assay type: in vivo, human; conditions: for adjusted mean annualized relapse rate: baseline until week 24
# Protocol: as §1, with “analyzed. All other secondary efficacy analyses were reported using descriptive statistics and were considered exploratory. The mean number or cumulative number of gadolinium-enhancing (Gd+), T1, or T2 lesions were summarized descriptively and analyzed with a generalized linear model as described earlier but adjusted for MRI field strength and baseline number of gadolinium-enhancing lesions only. Annualized relapse rate was compared between treatment groups and between the pooled vidofludimus calcium groups and placebo using a generalized linear model adjusted for baseline number of gadolinium-enhancing lesions, which included the offset term for real exposure time. Time-to-first relapse up to 24 weeks was analyzed using a Cox proportional hazards model, with covariates for treatment group and baseline gadolinium-enhancing lesions strata. The proportion of patients free of relapse was estimated using the Kaplan-Meier method. Statistical analyses were done using SAS version 9.4 (SAS Institute, Cary, NC, USA).” for “analyzed.”
structure (smiles),measurement,setting,value
"COc1cccc(-c2ccc(NC(=O)C3=C(C(=O)O)CCC3)c(F)c2)c1 [vidofludimus calcium, 1-cyclopentene-1-carboxylic acid, 2-(((3-fluoro-3′-methoxy(1,1′-biphenyl)-4-yl)amino)carbonyl)-, calcium salt (2:1)]",secretion of interleukin (IL)-17 and IFNγ,[1],inhibited
same,Median change in neurofilament light chain in serum from baseline to week 24,[2]; 30 mg once daily,−17.0%
same,"decrease in serum neurofilament light chain (NfL), dose comparison","[2]; 45 mg dose, FIG. 3A",greater decrease
same,Median change in neurofilament light chain in serum from baseline to week 24,[2]; 45 mg once daily,−20.5%
same,potency against human DHODH,human DHODH,submicromolar potency
same,suppression of CUA lesions at Week 12 compared with placebo,[3]; 10 mg,32%
same,"Cumulative number of CUA MRI lesions up to Week 12, Mean","[3]; 10 mg (C2), mFAS, placebo 4.4",3.0
same,Patients without CUA MRI lesions over 12 weeks,"[3]; 10 mg (C2), mFAS, placebo 41.4, listed as IMU-838",46% and 45.7%
same,Patients without New Gd+ lesions over 12 weeks,"[3]; 10 mg (C2), mFAS, placebo 49.3, listed as IMU-838",51% and 51.1%
same,lowest effective dose in patients with rrMS,[3]; totality of Cohort 1 data and Week 12 interim analysis of Cohort 2,30 mg
same,daily dose considered safe,[4],up to 50 mg
same,T-lymphocyte proliferation,[5],inhibited
same,adjusted mean annualized relapse rate,[6]; 30 mg once daily,0.39 (95% Cl 0.22-0.69)
same,hazard ratio for relapse up to 24 weeks,[6]; 30 mg vs placebo,0.58 (95% Cl: 0.26-1.29)
same,"rate ratio, annualized relapse rate",[6]; 30 mg vs placebo,0.72 (95% Cl 0.34-1.55)
same,adjusted mean annualized relapse rate,[6]; 45 mg once daily,0.48 (95% Cl 0.28-0.82)
same,hazard ratio for relapse up to 24 weeks,[6]; 45 mg vs placebo,0.78 (95% Cl: 0.37-1.59)
same,"rate ratio, annualized relapse rate",[6]; 45 mg vs placebo,0.90 (95% Cl 0.44-1.86)
